Measurements from article PMC10404700, “A new member of the flavodoxin superfamily from Fusobacterium nucleatum that functions in heme trafficking and reduction of anaerobilin” (The Journal of Biological Chemistry, 2023).

Biological target: T1, FldH (Fusobacterium nucleatum, UniProt Q8RI14)
T1 construct: gene FN1822; full-length, 169 residues, N-terminal His6 tag (pET15b) cut with thrombin; expressed in E. coli BL21(DE3)pLysS; monomer
Assay: X-ray crystal structure, […] A
Assay type: binding
Settings: heme-bound protein; FMN copurified

T1 sequence (Q8RI14 entry or part of it): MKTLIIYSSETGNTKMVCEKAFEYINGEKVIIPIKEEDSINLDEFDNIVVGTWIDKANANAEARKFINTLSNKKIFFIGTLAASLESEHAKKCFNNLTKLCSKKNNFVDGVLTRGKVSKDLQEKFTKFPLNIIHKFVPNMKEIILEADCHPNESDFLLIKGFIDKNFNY

## Cc1cc2nc3c(=O)[nH]c(=O)nc-3n(C[C@H](O)[C@H](O)[C@H](O)COP(=O)(O)O)c2cc1C [FMN]
  X-ray crystal structure, 1.6 A: The FMN cofactor is situated at the carboxyl-terminal end of the β-parallel sheet
